Columns and labels:
Assay type in all cases: functional
Mus musculus [1] = organism: Mus musculus; experiment: Blood glucose level of the diabetic KK-Ay mice on day 0 was measured
Mus musculus [2] = organism: Mus musculus; experiment: Body weight of the fasted diabetic KK-Ay mice on day 10 was measured
Mus musculus [3] = organism: Mus musculus; experiment: Body weight of the non-fasted diabetic KK-Ay mice on day 4 was measured
Mus musculus [4] = organism: Mus musculus; experiment: Body weight of the non-fasted diabetic KK-Ay mice on day 0 was measured
Mus musculus [5] = organism: Mus musculus; experiment: Body weight of the non-fasted diabetic KK-Ay mice on day 7 was measured
Mus musculus [6] = organism: Mus musculus; experiment: Blood glucose level of the diabetic KK-Ay mice on day 4 was measured
Mus musculus [7] = organism: Mus musculus; experiment: Average food intake of the diabetic KK-Ay mice was measured from total intake amount/days/number of mice
Mus musculus [8] = organism: Mus musculus; experiment: Average sample intake of the diabetic KK-Ay mice was measured as average food intake/average body weight of mice

SMILES | Blood glucose (Mus musculus [1]) | Body weight (Mus musculus [2]) | Body weight (Mus musculus [3]) | Body weight (Mus musculus [4]) | Body weight (Mus musculus [5]) | Blood glucose (Mus musculus [6]) | Average food intake (Mus musculus [7]) | Average sample intake (Mus musculus [8])
COc1cc2oc(=O)c(-c3ccc(O)cc3O)cc2c(OC)c1CC=C(C)C [GLYCYRIN] | 474 mg/dL | 48.1 g | 50.4 g | 54.1 g | 51.9 g | 278 mg/dL | 5.34 g mouse-1 day-1 | 102 mg/kg/day
COc1c(CC=C(C)C)c(O)cc2oc(=O)c3c4ccc(O)cc4oc3c12 [GLYCYROL] | 427 mg/dL | 46.8 g | 49.1 g | 52.6 g | 50.3 g | 421 mg/dL | 5.47 g mouse-1 day-1 | 108 mg/kg/day
CCc1ccc(CCOc2ccc(CC3SC(=O)NC3=O)cc2)nc1 (centres undefined) [PIOGLITAZONE] | 486 mg/dL | 52.5 g | 53.6 g | 55.1 g | 55.8 g | 191 mg/dL | 6.34 g mouse-1 day-1 | 23 mg/kg/day

Reference: ChEMBL document CHEMBL1136465, “Phenolics with PPAR-gamma ligand-binding activity obtained from licorice (Glycyrrhiza uralensis roots) and ameliorative effects of glycyrin on genetically diabetic KK-A(y) mice” (2003)
